Source: the supplement of paper PMC10307832

Experiments:
Experiment in all cases: relative viability (nuclei count vs DMSO), 5 days (fraction); higher = more cells survive
[1] = system: LU99A
Method in brief: (§1)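 Lung cancer cell lines were pin-tool dosed in 1536-well plates on the day after seeding, with either a lone drug or a fixed anchor-drug dose plus five library-drug doses (not always all listed) in √10 steps. Nuclei were counted on 4× images after 5 days. Relative viability is the ratio of treated-well to vehicle-well nuclei counts, with each value a median of duplicate plates.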

[2] = system: ChaGo-K-1
Method in brief: as §1

[3] = system: NCI-H661
Method in brief: as §1

[4] = system: NCI-H1944
Method in brief: as §1

[5] = system: SK-MES-1
Method in brief: as §1

[6] = system: NCI-H358
Method in brief: as §1

[7] = system: NCI-H322M
Method in brief: as §1

[8] = system: HCC-15
Method in brief: as §1

[9] = system: LXF-289
Method in brief: as §1

[10] = system: BEN
Method in brief: as §1

[11] = system: NCI-H2087
Method in brief: as §1

[12] = system: NCI-H838
Method in brief: as §1

[13] = system: H3255
Method in brief: as §1

[14] = system: NCI-H2342
Method in brief: as §1

[15] = system: NCI-H650
Method in brief: as §1

[16] = system: LK-2
Method in brief: as §1

[17] = system: PC-3 [JPC-3]
Method in brief: as §1

[18] = system: HCC-78
Method in brief: as §1

[19] = system: NCI-H1651
Method in brief: as §1

[20] = system: NCI-H1666
Method in brief: as §1

[21] = system: UMC-11
Method in brief: as §1

[22] = system: LCLC-97TM1
Method in brief: as §1

[23] = system: LC-2-ad
Method in brief: as §1

[24] = system: NCI-H596
Method in brief: as §1

Clc1ccc(Nc2nnc(Cc3ccncc3)c3ccccc23)cc1 [Vatalanib] + Cc1nc(Nc2ncc(C(=O)Nc3c(C)cccc3Cl)s2)cc(N2CCN(CCO)CC2)n1 [Dasatinib] (partner 0.075 µM)
relative viability ([1]; first compound 0.04 µM): 0.499
relative viability ([1]; first compound 0.1265 µM): 0.58
relative viability ([1]; first compound 0.4 µM): 0.685
relative viability ([1]; first compound 1.265 µM): 0.44
relative viability ([1]; first compound 4 µM): 0.583
relative viability ([2]; first compound 0.04 µM): 0.578
relative viability ([2]; first compound 0.1265 µM): 0.541
relative viability ([2]; first compound 0.4 µM): 0.582
relative viability ([2]; first compound 1.265 µM): 0.569
relative viability ([2]; first compound 4 µM): 0.586
relative viability ([3]; first compound 0.04 µM): 0.935
relative viability ([3]; first compound 0.1265 µM): 0.854
relative viability ([3]; first compound 0.4 µM): 1.06
relative viability ([3]; first compound 1.265 µM): 0.853
relative viability ([3]; first compound 4 µM): 0.804
relative viability ([4]; first compound 0.04 µM): 0.227
relative viability ([4]; first compound 0.1265 µM): 0.228
relative viability ([4]; first compound 0.4 µM): 0.254
relative viability ([4]; first compound 1.265 µM): 0.23
relative viability ([4]; first compound 4 µM): 0.228
relative viability ([5]; first compound 0.04 µM): 0.346
relative viability ([5]; first compound 0.1265 µM): 0.439
relative viability ([5]; first compound 0.4 µM): 0.32
relative viability ([5]; first compound 1.265 µM): 0.348
relative viability ([5]; first compound 4 µM): 0.34
relative viability ([6]; first compound 0.04 µM): 0.164
relative viability ([6]; first compound 0.1265 µM): 0.194
relative viability ([6]; first compound 0.4 µM): 0.165
relative viability ([6]; first compound 1.265 µM): 0.162
relative viability ([6]; first compound 4 µM): 0.169
relative viability ([7]; first compound 0.04 µM): 0.248
relative viability ([7]; first compound 0.1265 µM): 0.238
relative viability ([7]; first compound 0.4 µM): 0.256
relative viability ([7]; first compound 1.265 µM): 0.247
relative viability ([7]; first compound 4 µM): 0.256
relative viability ([8]; first compound 0.04 µM): 0.611
relative viability ([8]; first compound 0.1265 µM): 0.628
relative viability ([8]; first compound 0.4 µM): 0.628
relative viability ([8]; first compound 1.265 µM): 0.524
relative viability ([8]; first compound 4 µM): 0.538
relative viability ([9]; first compound 0.04 µM): 0.233
relative viability ([9]; first compound 0.1265 µM): 0.269
relative viability ([9]; first compound 0.4 µM): 0.336
relative viability ([9]; first compound 1.265 µM): 0.283
relative viability ([9]; first compound 4 µM): 0.204
relative viability ([10]; first compound 0.04 µM): 0.308
relative viability ([10]; first compound 0.1265 µM): 0.271
relative viability ([10]; first compound 0.4 µM): 0.315
relative viability ([10]; first compound 1.265 µM): 0.29
relative viability ([10]; first compound 4 µM): 0.342
relative viability ([11]; first compound 0.04 µM): 0.937
relative viability ([11]; first compound 0.1265 µM): 0.769
relative viability ([11]; first compound 0.4 µM): 1.09
relative viability ([11]; first compound 1.265 µM): 0.808
relative viability ([11]; first compound 4 µM): 0.884
relative viability ([12]; first compound 0.04 µM): 0.325
relative viability ([12]; first compound 0.1265 µM): 0.277
relative viability ([12]; first compound 0.4 µM): 0.292
relative viability ([12]; first compound 1.265 µM): 0.275
relative viability ([12]; first compound 4 µM): 0.273
relative viability ([13]; first compound 0.04 µM): 0.316
relative viability ([13]; first compound 0.1265 µM): 0.385
relative viability ([13]; first compound 0.4 µM): 0.311
relative viability ([13]; first compound 1.265 µM): 0.28
relative viability ([13]; first compound 4 µM): 0.335
relative viability ([14]; first compound 0.04 µM): 0.292
relative viability ([14]; first compound 0.1265 µM): 0.324
relative viability ([14]; first compound 0.4 µM): 0.278
relative viability ([14]; first compound 1.265 µM): 0.312
relative viability ([14]; first compound 4 µM): 0.295
relative viability ([15]; first compound 0.04 µM): 0.434
relative viability ([15]; first compound 0.1265 µM): 0.448
relative viability ([15]; first compound 1.265 µM): 0.399
relative viability ([15]; first compound 4 µM): 0.434
relative viability ([16]; first compound 0.04 µM): 0.322
relative viability ([16]; first compound 0.1265 µM): 0.219
relative viability ([16]; first compound 0.4 µM): 0.244
relative viability ([16]; first compound 1.265 µM): 0.27
relative viability ([16]; first compound 4 µM): 0.294
relative viability ([17]; first compound 0.04 µM): 0.949
relative viability ([17]; first compound 0.1265 µM): 0.982
relative viability ([17]; first compound 0.4 µM): 0.951
relative viability ([17]; first compound 1.265 µM): 0.913
relative viability ([17]; first compound 4 µM): 0.891
relative viability ([18]; first compound 0.04 µM): 0.368
relative viability ([18]; first compound 0.1265 µM): 0.325
relative viability ([18]; first compound 0.4 µM): 0.333
relative viability ([18]; first compound 1.265 µM): 0.368
relative viability ([18]; first compound 4 µM): 0.383
relative viability ([19]; first compound 0.04 µM): 0.317
relative viability ([19]; first compound 0.1265 µM): 0.31
relative viability ([19]; first compound 0.4 µM): 0.421
relative viability ([19]; first compound 1.265 µM): 0.462
relative viability ([19]; first compound 4 µM): 0.372
relative viability ([20]; first compound 0.04 µM): 0.805
relative viability ([20]; first compound 0.1265 µM): 0.714
relative viability ([20]; first compound 0.4 µM): 0.883
relative viability ([20]; first compound 1.265 µM): 0.791
relative viability ([20]; first compound 4 µM): 0.758
relative viability ([21]; first compound 0.04 µM): 0.422
relative viability ([21]; first compound 0.1265 µM): 0.496
relative viability ([21]; first compound 0.4 µM): 0.444
relative viability ([21]; first compound 1.265 µM): 0.442
relative viability ([21]; first compound 4 µM): 0.45
relative viability ([22]; first compound 0.04 µM): 0.994
relative viability ([22]; first compound 0.1265 µM): 0.621
relative viability ([22]; first compound 0.4 µM): 0.839
relative viability ([22]; first compound 1.265 µM): 0.775
relative viability ([22]; first compound 4 µM): 0.871
relative viability ([23]; first compound 0.04 µM): 0.739
relative viability ([23]; first compound 0.1265 µM): 0.492
relative viability ([23]; first compound 1.265 µM): 0.507
relative viability ([23]; first compound 4 µM): 0.536
relative viability ([24]; first compound 0.04 µM): 0.643
relative viability ([24]; first compound 0.1265 µM): 0.652
relative viability ([24]; first compound 0.4 µM): 0.637
relative viability ([24]; first compound 1.265 µM): 0.518
relative viability ([24]; first compound 4 µM): 0.592
